# Experiments:
# [1] = test system: NALM6.GFP.LUC.CD19 target cells; assay: Serial killing assay of CAR-T, percent cytotoxicity by luciferase detection; conditions: two different E:T ratios, dose titration
# [2] = Clinical pharmacokinetic data converted to in vitro concentrations; conditions: human, in vivo
# Source text: Given the different potencies of the JAK inhibitors and different pharmacokinetic properties for each drug, it was sought to test each drug at a relevant range of physiological concentrations based on clinical dosing and reported pharmacokinetic data from repeat dose studies. Reported Cmax values in patient sera were converted to in vitro concentrations and adjusted for reported plasma protein binding.
# in vitro = conditions: human, CAR-T cells
# Description: 96-well plates were coated with 100 μl of KIP-1 antibody per well at 1 μg/ml in PBS and plates were incubated at 4° C. overnight. CAR-T cells were thawed and were rested in ImmunoCult expansion medium and incubated overnight at 37° C. Cells were then counted and resuspended at 2 million cells/ml and seed at 200,000 cells per well in 100 μl of expansion medium with 10 ng/ml recombinant IL2. For groups treated with KIP-1, 100 μl of expansion medium were added with 2× final drug dilutions. For CD3/CD28 treated groups, 100 μl of expansion media were added with 2× final drug dilutions containing 25 μl/ml of CD3/CD28 T cell activator from StemCell Technologies. Cells were then incubated at 37° C. After 4 days, cells were counted and diluted 1 to 8-fold in expansion media and then transferred to a 24-well plate. Cell counts were repeated at day 7 and transferred to T25 flasks. On day 11, all cells were harvested and counted.
# Nalm-6 luc = assay: CAR-T cell killing assay (luciferase viability of tumor cells)
# [3] = test system: phospho-STAT panel (pSTAT3/4/5), CD3+ T cells; assay: phospho-STAT induction by IL-6, MesoScale Discovery phospho-STAT panel; format: cell-based, human; conditions: CD3+ T cells
# Description: CD19 CAR-T, PBMC or CD3+ T cells (AllCells) were thawed and rested 0/N at 37° C. in R10 media. Cells were seeded at 700,000 cells/well and were either untreated or treated with 100 ng/ml IL6+drug at indicated concentrations for 20 minutes at 37° C. The cells were then washed with cold PBS and followed by 60 μl of Tris lysis buffer (provided by MSD) for 30 minutes on ice. Lysates were collected by spin down for 10 minutes at >10,000 rpm. 25 μl/well per condition was used for MesoScale Discovery (MSD) assay using the phospho-STAT panel (pSTAT3/4/5) from MesoScale Discovery following the manufacturer's protocol. pSTAT panel plates were blocked with 150 μl of blocker A solution for 1 hr at RT with shaking. Plates were washed three times with 1× Tris wash buffer. 25 μl of lysate samples were added per well, incubated 2 hr at room temperature or at 4° C. overnight. Plates were washed 3 times with 1× tris wash buffer and then 25 μl of detection antibody solution were added to each well and incubated for 1 hr at room temperature with shaking. Plates were washed and 1× read buffer added to each well and plates were read on the MSD instrument.
structure (smiles),measurement,setting,value
CC[C@@H]1CN(C(=O)NCC(F)(F)F)C[C@@H]1c1cnc2cnc3[nH]ccc3n12 [upadacitinib],impact on CAR-T serial killing (percent cytotoxicity),[1],negative impacts
same,PPB adj. in Vitro concentration,[2],97 nM
same,clinically relevant dose level (in vitro concentration),[2],~100 nM
same,"viability at 0 day, 50 nM",in vitro,75%
same,"viability at 0 day, 100 nM",in vitro,75%
same,"viability at 4 day, 50 nM",in vitro,63.2%
same,"viability at 4 day, 100 nM",in vitro,59.9%
same,"viability at 8 day, 50 nM",in vitro,65.3%
same,"viability at 8 day, 100 nM",in vitro,62%
same,"viability at 12 day, 50 nM",in vitro,79%
same,"viability at 12 day, 100 nM",in vitro,67.5%
same,Mean tumor cell death (%),"Nalm-6 luc; E:T ratio 1:1, dose 10 nM",96.9%
same,Mean tumor cell death (%),"Nalm-6 luc; E:T ratio 1:1, dose 20 nM",96.3%
same,Mean tumor cell death (%),"Nalm-6 luc; E:T ratio 1:1, dose 40 nM",96.3%
same,Mean tumor cell death (%),"Nalm-6 luc; E:T ratio 1:1, dose 60 nM",94.5%
same,Mean tumor cell death (%),"Nalm-6 luc; E:T ratio 1:1, dose 80 nM",94.4%
same,Mean tumor cell death (%),"Nalm-6 luc; E:T ratio 1:1, dose 100 nM",92%
same,Mean tumor cell death (%),"Nalm-6 luc; E:T ratio 1:3, dose 10 nM",68.1%
same,Mean tumor cell death (%),"Nalm-6 luc; E:T ratio 1:3, dose 20 nM",66.1%
same,Mean tumor cell death (%),"Nalm-6 luc; E:T ratio 1:3, dose 40 nM",60.5%
same,Mean tumor cell death (%),"Nalm-6 luc; E:T ratio 1:3, dose 60 nM",46.2%
same,Mean tumor cell death (%),"Nalm-6 luc; E:T ratio 1:3, dose 80 nM",46.5%
same,Mean tumor cell death (%),"Nalm-6 luc; E:T ratio 1:3, dose 100 nM",25.7%
same,Mean tumor cell death (%),"Nalm-6 luc; E:T ratio 1:9, dose 10 nM",35.6%
same,Mean tumor cell death (%),"Nalm-6 luc; E:T ratio 1:9, dose 20 nM",25.6%
same,Mean tumor cell death (%),"Nalm-6 luc; E:T ratio 1:9, dose 40 nM",34.7%
same,Mean tumor cell death (%),"Nalm-6 luc; E:T ratio 1:9, dose 60 nM",33.4%
same,Mean tumor cell death (%),"Nalm-6 luc; E:T ratio 1:9, dose 80 nM",23%
same,Mean tumor cell death (%),"Nalm-6 luc; E:T ratio 1:9, dose 100 nM",16.9%
same,pSTAT3,"[3]; 100 ng/ml IL-6 + drug 10 uM, 20 min, MSD signal (No stim. 689, IL-6 alone 33641)",2450
same,pSTAT4,"[3]; 100 ng/ml IL-6 + drug 10 uM, 20 min, MSD signal (No stim. 1964, IL-6 alone 15405)",2322
same,pSTAT5,"[3]; 100 ng/ml IL-6 + drug 10 uM, 20 min, MSD signal (No stim. 9210, IL-6 alone 17743)",1354
same,pSTAT3,"[3]; IL-6 + drug 0.125 uM, MSD signal (No stim. 689, IL-6 alone 33641)",3605
same,pSTAT4,"[3]; IL-6 + drug 0.125 uM, MSD signal (No stim. 1964, IL-6 alone 15405)",2819
same,pSTAT5,"[3]; IL-6 + drug 0.125 uM, MSD signal (No stim. 9210, IL-6 alone 17743)",1757
same,pSTAT3,"[3]; IL-6 + drug 0.5 uM, MSD signal (No stim. 689, IL-6 alone 33641)",2207
same,pSTAT4,"[3]; IL-6 + drug 0.5 uM, MSD signal (No stim. 1964, IL-6 alone 15405)",2397
same,pSTAT5,"[3]; IL-6 + drug 0.5 uM, MSD signal (No stim. 9210, IL-6 alone 17743)",1528
same,pSTAT3,"[3]; IL-6 + drug 1 uM, MSD signal (No stim. 689, IL-6 alone 33641)",2393
same,pSTAT4,"[3]; IL-6 + drug 1 uM, MSD signal (No stim. 1964, IL-6 alone 15405)",2417
same,pSTAT5,"[3]; IL-6 + drug 1 uM, MSD signal (No stim. 9210, IL-6 alone 17743)",1534
same,pSTAT3,"[3]; IL-6 + drug 5 uM, MSD signal (No stim. 689, IL-6 alone 33641)",2290
same,pSTAT4,"[3]; IL-6 + drug 5 uM, MSD signal (No stim. 1964, IL-6 alone 15405)",2229
same,pSTAT5,"[3]; IL-6 + drug 5 uM, MSD signal (No stim. 9210, IL-6 alone 17743)",1452
same,pSTAT3,"[3]; lower dose titration, IL-6 + drug 3.125 nM, MSD signal (No stim. 123, IL-6 alone 5767)",4615
same,pSTAT4,"[3]; lower dose titration, IL-6 + drug 3.125 nM, MSD signal (No stim. 281, IL-6 alone 3624)",2687
same,pSTAT5,"[3]; lower dose titration, IL-6 + drug 3.125 nM, MSD signal (No stim. 324, IL-6 alone 2352)",1166
same,pSTAT3,"[3]; lower dose titration, IL-6 + drug 6.25 nM, MSD signal (No stim. 123, IL-6 alone 5767)",3572
same,pSTAT4,"[3]; lower dose titration, IL-6 + drug 6.25 nM, MSD signal (No stim. 281, IL-6 alone 3624)",2797
same,pSTAT5,"[3]; lower dose titration, IL-6 + drug 6.25 nM, MSD signal (No stim. 324, IL-6 alone 2352)",1123
same,pSTAT3,"[3]; lower dose titration, IL-6 + drug 12.5 nM, MSD signal (No stim. 123, IL-6 alone 5767)",2560
same,pSTAT4,"[3]; lower dose titration, IL-6 + drug 12.5 nM, MSD signal (No stim. 281, IL-6 alone 3624)",1607
same,pSTAT5,"[3]; lower dose titration, IL-6 + drug 12.5 nM, MSD signal (No stim. 324, IL-6 alone 2352)",696
same,pSTAT3,"[3]; lower dose titration, IL-6 + drug 25 nM, MSD signal (No stim. 123, IL-6 alone 5767)",1495
same,pSTAT4,"[3]; lower dose titration, IL-6 + drug 25 nM, MSD signal (No stim. 281, IL-6 alone 3624)",1248
same,pSTAT5,"[3]; lower dose titration, IL-6 + drug 25 nM, MSD signal (No stim. 324, IL-6 alone 2352)",564
same,pSTAT3,"[3]; lower dose titration, IL-6 + drug 50 nM, MSD signal (No stim. 123, IL-6 alone 5767)",713
same,pSTAT4,"[3]; lower dose titration, IL-6 + drug 50 nM, MSD signal (No stim. 281, IL-6 alone 3624)",860
same,pSTAT5,"[3]; lower dose titration, IL-6 + drug 50 nM, MSD signal (No stim. 324, IL-6 alone 2352)",460
same,pSTAT3,"[3]; lower dose titration, IL-6 + drug 100 nM, MSD signal (No stim. 123, IL-6 alone 5767)",319
same,pSTAT4,"[3]; lower dose titration, IL-6 + drug 100 nM, MSD signal (No stim. 281, IL-6 alone 3624)",555
same,pSTAT5,"[3]; lower dose titration, IL-6 + drug 100 nM, MSD signal (No stim. 324, IL-6 alone 2352)",375

# — patent US12252701B2, “Chimeric antigen receptor T cell therapy” (KITE PHARMA, INC., priority 2020, dated 2025)
